Measured values published in ChEMBL document CHEMBL3817808, “Enlarging the chemical space of anti-leishmanials: a structureactivity relationship study of peptoids against Leishmania mexicana, a causative agent of cutaneous leishmaniasis” (Medchemcomm, 2016).
Non-standard residues stand in square brackets, D forms with d. Residues, ends and D or L forms follow the SMILES beside them. Gly(Nα-4-Cl-benzyl) = O=C(O)CNCc1ccc(Cl)cc1; N(4-F-Bzl)Gly = O=C(O)CNCc1ccc(F)cc1; Gly(N-(CH2)6NH2) = NCCCCCCNCC(=O)O; Gly(N-2-aminoethyl) = NCCNCC(=O)O; N(isopentyl)Gly = CC(C)CCNCC(=O)O; Nspe = C[C@H](NCC(=O)O)c1ccccc1; Nphe = O=C(O)CNCc1ccccc1; NPrGly = CCCNCC(=O)O; Nlys = NCCCCNCC(=O)O

Assays:
[1] = test system: Leishmania mexicana; experiment: Antileishmanial activity against Leishmania mexicana MNYC/BZ/62/M379 promastigotes assessed as parasite viability measured after 1 hr by alamarBlue staining based fluorescence analysis; assay type: functional; settings: MNYC/BZ/62/M379, 1 h, read-out: ED50 (the source's name)
[2] = test system: Leishmania mexicana; experiment: Antileishmanial activity against axenic amastigote form of Leishmania mexicana MNYC/BZ/62/M379 assessed as parasite viability measured after 1 hr by alamarBlue staining based fluorescence analysis; assay type: functional; settings: MNYC/BZ/62/M379, 1 h, read-out: ED50 (the source's name)

| Structure (SMILES) | EC50 [1] [µM] | EC50 [2] [µM] |
| --- | --- | --- |
| COc1ccc(CN(CC(N)=O)C(=O)CN(Cc2ccc(OC)cc2)C(=O)CN(CCCCN)C(=O)CN(Cc2ccc(OC)cc2)C(=O)CN(Cc2ccc(OC)cc2)C(=O)CNCCCCN)cc1 | > 100 | > 100 |
| C[C@@H](c1ccccc1)N(CC(N)=O)C(=O)CN(C(=O)CN(CCCCCCN)C(=O)CN(C(=O)CN(C(=O)CNCCCCCCN)[C@@H](C)c1ccccc1)[C@@H](C)c1ccccc1)[C@@H](C)c1ccccc1 | > 100 | > 100 |
| COc1ccc(CN(CC(N)=O)C(=O)CN(Cc2ccc(OC)cc2)C(=O)CN(CCCCN)C(=O)CN(Cc2ccc(OC)cc2)C(=O)CN(Cc2ccc(OC)cc2)C(=O)CN(CCCCN)C(=O)CN(Cc2ccc(OC)cc2)C(=O)CN(Cc2ccc(OC)cc2)C(=O)CNCCCCN)cc1 | > 100 | > 100 |
| C[C@@H](c1ccccc1)N(CC(N)=O)C(=O)CN(C(=O)CN(CCCCN)C(=O)CN(Cc1ccc(F)cc1)C(=O)CN(Cc1ccc(F)cc1)C(=O)CNCCCCN)[C@@H](C)c1ccccc1 | > 100 | > 100 |
| NCCCCNCC(=O)N(CC(=O)N(CC(=O)N(CCCCN)CC(=O)N(CC(=O)N(CC(=O)N(CCCCN)CC(=O)N(CC(=O)N(CC(N)=O)Cc1cccc(F)c1)Cc1cccc(F)c1)Cc1cccc(F)c1)Cc1cccc(F)c1)Cc1cccc(F)c1)Cc1cccc(F)c1 | 17 | > 100 |
| COc1ccc(CN(CC(N)=O)C(=O)CN(Cc2ccc(OC)cc2)C(=O)CN(CCCCN)C(=O)CN(Cc2ccc(OC)cc2)C(=O)CN(Cc2ccc(OC)cc2)C(=O)CN(CCCCN)C(=O)CN(Cc2ccc(OC)cc2)C(=O)CN(Cc2ccc(OC)cc2)C(=O)CN(CCCCN)C(=O)CN(Cc2ccc(OC)cc2)C(=O)CN(Cc2ccc(OC)cc2)C(=O)CNCCCCN)cc1 | 42 | > 100 |
| NCCCCNCC(=O)N(CC(=O)N(CC(=O)N(CCCCN)CC(=O)N(CC(=O)N(CC(=O)N(CCCCN)CC(=O)N(CC(=O)N(CC(N)=O)Cc1ccccc1)Cc1ccccc1)Cc1ccccc1)Cc1ccccc1)Cc1ccccc1)Cc1ccccc1 | > 100 | > 100 |
| C[C@@H](c1ccccc1)N(CC(N)=O)C(=O)CN(C(=O)CN(CCN)C(=O)CN(C(=O)CN(C(=O)CNCCN)[C@@H](C)c1ccccc1)[C@@H](C)c1ccccc1)[C@@H](C)c1ccccc1 | > 100 | > 100 |
| C[C@@H](c1ccccc1)N(CC(N)=O)C(=O)CN(Cc1ccc(F)cc1)C(=O)CN(CCCCN)C(=O)CN(C(=O)CN(Cc1ccc(F)cc1)C(=O)CNCCCCN)[C@@H](C)c1ccccc1 | > 100 | > 100 |
| NCCCCNCC(=O)N(CC(=O)N(CC(=O)N(CCCCN)CC(=O)N(CC(=O)N(CC(=O)N(CCCCN)CC(=O)N(CC(=O)N(CC(=O)N(CCCCN)CC(=O)N(CC(=O)N(CC(N)=O)Cc1cccc(F)c1)Cc1cccc(F)c1)Cc1cccc(F)c1)Cc1cccc(F)c1)Cc1cccc(F)c1)Cc1cccc(F)c1)Cc1cccc(F)c1)Cc1cccc(F)c1 | 14 | 69 |
| NCCCCNCC(=O)N(CC(=O)N(CC(=O)N(CCCCN)CC(=O)N(CC(=O)N(CC(N)=O)Cc1cccc(F)c1)Cc1cccc(F)c1)Cc1cccc(F)c1)Cc1cccc(F)c1 | > 100 | > 100 |
| NCCNCC(=O)N(CC(=O)N(CC(=O)N(CCN)CC(=O)N(CC(=O)N(CC(N)=O)Cc1ccccc1)Cc1ccccc1)Cc1ccccc1)Cc1ccccc1 (H-[Gly(N-2-aminoethyl)][Nphe][Nphe][Gly(N-2-aminoethyl)][Nphe][Nphe]-NH2) | > 100 | > 100 |
| NCCNCC(=O)N(CC(=O)N(CC(=O)N(CCN)CC(=O)N(CC(=O)N(CC(=O)N(CCN)CC(=O)N(CC(=O)N(CC(N)=O)Cc1ccccc1)Cc1ccccc1)Cc1ccccc1)Cc1ccccc1)Cc1ccccc1)Cc1ccccc1 (H-[Gly(N-2-aminoethyl)][Nphe][Nphe][Gly(N-2-aminoethyl)][Nphe][Nphe][Gly(N-2-aminoethyl)][Nphe][Nphe]-NH2) | > 100 | > 100 |
| NCCCCCCNCC(=O)N(CC(=O)N(CC(=O)N(CCCCCCN)CC(=O)N(CC(=O)N(CC(N)=O)Cc1ccccc1)Cc1ccccc1)Cc1ccccc1)Cc1ccccc1 (H-[Gly(N-(CH2)6NH2)][Nphe][Nphe][Gly(N-(CH2)6NH2)][Nphe][Nphe]-NH2) | > 100 | > 100 |
| NCCCCCCNCC(=O)N(CC(=O)N(CC(=O)N(CCCCCCN)CC(=O)N(CC(=O)N(CC(=O)N(CCCCCCN)CC(=O)N(CC(=O)N(CC(N)=O)Cc1ccccc1)Cc1ccccc1)Cc1ccccc1)Cc1ccccc1)Cc1ccccc1)Cc1ccccc1 (H-[Gly(N-(CH2)6NH2)][Nphe][Nphe][Gly(N-(CH2)6NH2)][Nphe][Nphe][Gly(N-(CH2)6NH2)][Nphe][Nphe]-NH2) | > 100 | > 100 |
| NCCCCCCNCC(=O)N(CC(=O)N(CC(=O)N(CCCCCCN)CC(=O)N(CC(=O)N(CC(=O)N(CCCCCCN)CC(=O)N(CC(=O)N(CC(=O)N(CCCCCCN)CC(=O)N(CC(=O)N(CC(N)=O)Cc1ccccc1)Cc1ccccc1)Cc1ccccc1)Cc1ccccc1)Cc1ccccc1)Cc1ccccc1)Cc1ccccc1)Cc1ccccc1 (H-[Gly(N-(CH2)6NH2)][Nphe][Nphe][Gly(N-(CH2)6NH2)][Nphe][Nphe][Gly(N-(CH2)6NH2)][Nphe][Nphe][Gly(N-(CH2)6NH2)][Nphe][Nphe]-NH2) | 21 | > 100 |
| C[C@@H](c1ccccc1)N(CC(N)=O)C(=O)CN(C(=O)CN(CCCCCCN)C(=O)CN(C(=O)CN(C(=O)CN(CCCCCCN)C(=O)CN(C(=O)CN(C(=O)CNCCCCCCN)[C@@H](C)c1ccccc1)[C@@H](C)c1ccccc1)[C@@H](C)c1ccccc1)[C@@H](C)c1ccccc1)[C@@H](C)c1ccccc1 (H-[Gly(N-(CH2)6NH2)][Nspe][Nspe][Gly(N-(CH2)6NH2)][Nspe][Nspe][Gly(N-(CH2)6NH2)][Nspe][Nspe]-NH2) | 25 | > 100 |
| C[C@@H](c1ccccc1)N(CC(N)=O)C(=O)CN(C(=O)CN(CCCCCCN)C(=O)CN(C(=O)CN(C(=O)CN(CCCCCCN)C(=O)CN(C(=O)CN(C(=O)CN(CCCCCCN)C(=O)CN(C(=O)CN(C(=O)CNCCCCCCN)[C@@H](C)c1ccccc1)[C@@H](C)c1ccccc1)[C@@H](C)c1ccccc1)[C@@H](C)c1ccccc1)[C@@H](C)c1ccccc1)[C@@H](C)c1ccccc1)[C@@H](C)c1ccccc1 (H-[Gly(N-(CH2)6NH2)][Nspe][Nspe][Gly(N-(CH2)6NH2)][Nspe][Nspe][Gly(N-(CH2)6NH2)][Nspe][Nspe][Gly(N-(CH2)6NH2)][Nspe][Nspe]-NH2) | 11 | > 100 |
| NCCCCNCC(=O)N(CC(=O)N(CC(=O)N(CCCCN)CC(=O)N(CC(=O)N(CC(N)=O)Cc1ccc(Cl)cc1)Cc1ccc(Cl)cc1)Cc1ccc(Cl)cc1)Cc1ccc(Cl)cc1 (H-[Nlys][Gly(Nα-4-Cl-benzyl)][Gly(Nα-4-Cl-benzyl)][Nlys][Gly(Nα-4-Cl-benzyl)][Gly(Nα-4-Cl-benzyl)]-NH2) | 29 | > 100 |
| NCCCCNCC(=O)N(CC(=O)N(CC(=O)N(CCCCN)CC(=O)N(CC(=O)N(CC(=O)N(CCCCN)CC(=O)N(CC(=O)N(CC(N)=O)Cc1ccc(Cl)cc1)Cc1ccc(Cl)cc1)Cc1ccc(Cl)cc1)Cc1ccc(Cl)cc1)Cc1ccc(Cl)cc1)Cc1ccc(Cl)cc1 (H-[Nlys][Gly(Nα-4-Cl-benzyl)][Gly(Nα-4-Cl-benzyl)][Nlys][Gly(Nα-4-Cl-benzyl)][Gly(Nα-4-Cl-benzyl)][Nlys][Gly(Nα-4-Cl-benzyl)][Gly(Nα-4-Cl-benzyl)]-NH2) | 22 | 85 |
| NCCCCNCC(=O)N(CC(=O)N(CC(=O)N(CCCCN)CC(=O)N(CC(=O)N(CC(=O)N(CCCCN)CC(=O)N(CC(=O)N(CC(=O)N(CCCCN)CC(=O)N(CC(=O)N(CC(N)=O)Cc1ccc(Cl)cc1)Cc1ccc(Cl)cc1)Cc1ccc(Cl)cc1)Cc1ccc(Cl)cc1)Cc1ccc(Cl)cc1)Cc1ccc(Cl)cc1)Cc1ccc(Cl)cc1)Cc1ccc(Cl)cc1 (H-[Nlys][Gly(Nα-4-Cl-benzyl)][Gly(Nα-4-Cl-benzyl)][Nlys][Gly(Nα-4-Cl-benzyl)][Gly(Nα-4-Cl-benzyl)][Nlys][Gly(Nα-4-Cl-benzyl)][Gly(Nα-4-Cl-benzyl)][Nlys][Gly(Nα-4-Cl-benzyl)][Gly(Nα-4-Cl-benzyl)]-NH2) | 28 | 44 |
| NCCCCNCC(=O)N(CC(=O)N(CC(=O)N(CCCCN)CC(=O)N(CC(=O)N(CC(N)=O)Cc1ccc(F)cc1)Cc1ccc(F)cc1)Cc1ccc(F)cc1)Cc1ccc(F)cc1 (H-[Nlys][N(4-F-Bzl)Gly][N(4-F-Bzl)Gly][Nlys][N(4-F-Bzl)Gly][N(4-F-Bzl)Gly]-NH2) | > 100 | > 100 |
| NCCCCNCC(=O)N(CC(=O)N(CC(=O)N(CCCCN)CC(=O)N(CC(=O)N(CC(=O)N(CCCCN)CC(=O)N(CC(=O)N(CC(N)=O)Cc1ccc(F)cc1)Cc1ccc(F)cc1)Cc1ccc(F)cc1)Cc1ccc(F)cc1)Cc1ccc(F)cc1)Cc1ccc(F)cc1 (H-[Nlys][N(4-F-Bzl)Gly][N(4-F-Bzl)Gly][Nlys][N(4-F-Bzl)Gly][N(4-F-Bzl)Gly][Nlys][N(4-F-Bzl)Gly][N(4-F-Bzl)Gly]-NH2) | 19 | > 100 |
| NCCCCNCC(=O)N(CC(=O)N(CC(=O)N(CCCCN)CC(=O)N(CC(=O)N(CC(=O)N(CCCCN)CC(=O)N(CC(=O)N(CC(=O)N(CCCCN)CC(=O)N(CC(=O)N(CC(N)=O)Cc1ccc(F)cc1)Cc1ccc(F)cc1)Cc1ccc(F)cc1)Cc1ccc(F)cc1)Cc1ccc(F)cc1)Cc1ccc(F)cc1)Cc1ccc(F)cc1)Cc1ccc(F)cc1 (H-[Nlys][N(4-F-Bzl)Gly][N(4-F-Bzl)Gly][Nlys][N(4-F-Bzl)Gly][N(4-F-Bzl)Gly][Nlys][N(4-F-Bzl)Gly][N(4-F-Bzl)Gly][Nlys][N(4-F-Bzl)Gly][N(4-F-Bzl)Gly]-NH2) | 15 | 75 |
| CC(C)CCN(CC(=O)N(CC(N)=O)[C@@H](C)c1ccccc1)C(=O)CN(CCCCN)C(=O)CN(C(=O)CN(CCC(C)C)C(=O)CNCCCCN)[C@@H](C)c1ccccc1 (H-[Nlys][N(isopentyl)Gly][Nspe][Nlys][N(isopentyl)Gly][Nspe]-NH2) | > 100 | > 100 |
| CCCN(CC(=O)N(CC(N)=O)[C@@H](C)c1ccccc1)C(=O)CN(CCCCN)C(=O)CN(C(=O)CN(CCC)C(=O)CNCCCCN)[C@@H](C)c1ccccc1 (H-[Nlys][NPrGly][Nspe][Nlys][NPrGly][Nspe]-NH2) | > 100 | > 100 |
